Data: article PMC3039689, “Identification of Small Molecule Lead Compounds for Visceral Leishmaniasis Using a Novel Ex Vivo Splenic Explant Model System” (PLoS Neglected Tropical Diseases, 2011)
Structures can show the parent of a compound that is named as a salt. Where two headings read alike, the source gives them in different places.

Tests used:
[1] = Cell toxicity (CC50) in the HepG2 cell line, CellTiter-Glo; type: cell-based, human; conditions: human
Procedure: After 24 hours of culture at 37°C the number of viable cells was determined by quantification of the ATP present in the cell using the CellTiter-Glo luminescent Cell Viability Assay (Promega).

[2] = system: luciferase-transfected Leishmania donovani; assay: Anti-leishmanial efficacy (EC50) in the ex vivo splenic explant model; type: cell-based
Procedure: To establish the plate assay for drug screening, the spleens from 2 infected hamsters were aseptically removed and placed in a Petri dish containing 5 mL of Collagenase D (Roche) at 2 mg/mL of buffer (10 mM Hepes pH 7.4, 150 mM NaCl, 5 mM KCl, 1 mM MgCl2, 1.8 mM CaCl2). The spleen was infiltrated by injection with approximately 2 mL of Collagenase solution, the tissue was cut into small pieces using sharp scissors, and incubated for 20 minutes at 37°C. The cell suspension and remaining tissue fragments were gently passed through a 100 µm cell strainer (B–D) to obtain a single cell suspension, which was washed twice by centrifugation (500 g for 7 min at 4°C) and re-suspended in culture medium composed of DMEM (Gibco), 5% FBS, 1 mM Sodium pyruvate (Gibco), 1X MEM amino acids solution (Sigma), 0.02% v/v/EDTA, 10 mM HEPES buffer (Cellgro) and 100 IU/mL Penicillin/100 […] Streptomycin solution (Cellgro).
The anti-leishmanial efficacy of the compounds was determined using the splenic explant model in a 96-well plate format. […] Because variation in the parasite burden between different explant cultures was expected, the concentration of cells used in each experiment was adjusted to give approximately 100 counts by luminometry (equivalent to ∼240,000 parasites). The number of surviving parasites was determined by luminometry as described above.

[3] = HepG2 cells, HepG2 cell line, 24 h, ATP luminescence, compound from screened library, read-out: HepG2 CC50 Mean
[4] = Leishmania donovani, 48 h, ex vivo splenic explant, 48 h, luminometry, at least two experiments, compound from screened library, read-out: Ex vivo model EC50 Mean
[5] = HepG2 cell line, 24 h, ATP luminescence, compound from screened library, read-out: HepG2 CC50 Mean
[6] = Leishmania donovani, ex vivo splenic explant, 48 h, luminometry, at least two experiments, compound from screened library, read-out: Ex vivo model EC50 Mean
[7] = Leishmania donovani, 50% reduction in parasite counts in the ex vivo model, read-out: EC50 Mean (Table S2)
[8] = 50% reduction in parasite counts in the ex vivo model, read-out: EC50 Mean (Table S2)

CC(C)(C)NCCC(O)c1cc(C(F)(F)F)nc2c(C(F)(F)F)cccc12 (stereo not drawn) [1-(2,8-bis(trifluoromethyl)-4-quinolinyl)-3-(tert-butylamino)-1-propanol]
CC50 at 24 h [1, 3]: 44.2 µM | EC50 [2, 4]: 7.9 µM

CCN(CC)CCN1C(=O)c2cccc3cc(N)cc(c23)C1=O [1H-Benz[de]isoquinoline-1,3(2H)-dione, 5-amino-2-[2-(diethylamino)ethyl]-]
CC50 [1, 5]: 69.3 µM | EC50 [2, 6]: 8.4 µM

COc1cc(O)c(C(=O)/C=C/c2ccc(O)c(OC)c2)c(OC)c1 [2',4-dihydroxy-3,4',6'-trimethoxychalcone]
CC50 at 24 h [1, 3]: 106 µM | EC50 [2, 4]: 14.6 µM

CN(C)CCCNc1cc(O)c2c(c1O)C(=O)c1ccccc1C2=O [2-((3-(dimethylamino)propyl)amino)-1,4-dihydroxyanthra-9,10-quinone]
CC50 [1, 5]: 75.1 µM | EC50 [2, 6]: 6.7 µM

CSc1ccc2c(c1)c(CCN)c(C)n2Cc1ccccc1Cl [2-[1-[(2-chlorophenyl)methyl]-2-methyl-5-methylsulfanyl-indol-3-yl]ethanamine]
CC50 [1, 5]: 71.8 µM | EC50 [2, 6]: 9.4 µM

CN(C)CCCN1CCC2(CCC(C(C)(C)C)CC2)CC1 [3-(9-tert-butyl-3-azaspiro[5.5]undec-3-yl)-N,N-dimethyl-1-propanamine]
CC50 at 24 h [1, 3]: 61.8 µM | EC50 [2, 4]: 6.1 µM

CN(C)CCCN1c2ccccc2Sc2ccc3ccccc3c21 [3-(12H-benzo[a]phenothiazin-12-yl)-N,N-dimethyl-1-propanamine]
CC50 [1, 5]: 66.6 µM | EC50 [2, 6]: 11.5 µM

CCC1=C(CC2NCCc3ccccc32)CC2c3cc(OC)c(OC)cc3CCN2C1 (stereo not drawn) [3-ethyl-9,10-dimethoxy-2-(1,2,3,4-tetrahydro-isoquinolin-1-ylmethyl)-1,6,7,11b-tetrahydro-4H-pyrido(2,1-a)isoquinoline]
CC50 [1, 5]: 24 µM | EC50 [2, 6]: 2.7 µM

Cc1cc(N2CCCCC2)nc2ccc(Cc3ccc4nc(N5CCCCC5)cc(C)c4c3)cc12 [4-methyl-6-((4-methyl-2-(1-piperidinyl)-6-quinolinyl)methyl)-2-(1-piperidinyl)quinoline]
CC50 at 24 h [1]: 109 µM | EC50 [2, 6]: 18.4 µM

OC1(c2ccccc2)c2ccccc2NC2=NCCN21 (stereo not drawn) [5-phenyl-3,10-dihydro-2H-imidazo[2,1-b]quinazolin-5-ol]
CC50 at 24 h [1, 3]: 107 µM | EC50 [2, 4]: 12 µM

COc1ccc(-c2cc(=O)c3cc(OC)ccc3o2)cc1 [6,4'-dimethoxyflavone]
CC50 at 24 h [1, 3]: 95 µM | EC50 [2, 4]: 17.9 µM

COc1cc(NCCC2CCCCN2)c2ncccc2c1 (stereo not drawn) [6-methoxy-N-(2-(2-piperidinyl)ethyl)-8-quinolinamine]
CC50 at 24 h [1]: 108 µM | EC50 [2, 6]: 5.1 µM

CN(C)CCCN1c2ccc(O)cc2Sc2ccc(Cl)cc21 [7-Hydroxychlorpromazine]
CC50 [1, 5]: 60.1 µM | EC50 [2, 6]: 11 µM

Clc1ccc2c(NC3CCC(N4CCCCC4)CC3)ccnc2c1 (stereo not drawn) [7-chloro-N-(4-(1-piperidinyl)cyclohexyl)-4-quinolinamine]
CC50 at 24 h [1, 3]: 67.4 µM | EC50 [2, 4]: 6.3 µM

CN(C)CC1CCC2=C(C1=O)C(c1ccc(Cl)c(Cl)c1)C1=C(CCC(CN(C)C)C1=O)O2 (stereo not drawn) [9-(3,4-Dichlorophenyl)-2,7-bis(dimethylaminomethyl)-3,4,5,6,7,9-hexahydro-2H-xanthene-1,8-dione]
CC50 at 24 h [1, 3]: 49.8 µM | EC50 [2, 4]: 9.4 µM

CC(NCCN(C)C)C1CC[C@H]2[C@@H]3CCc4cc(O)ccc4[C@H]3CC[C@]12C (stereo partly drawn) [17-(1-((2-(dimethylamino)ethyl)amino)ethyl)estra-1,3,5(10)-trien-3-ol]
CC50 at 24 h [1]: 51.6 µM | EC50 [2, 4]: 6.2 µM

C[C@]12CC[C@H]3[C@@H](CC=C4C[C@@H](O)CC[C@@]43C)[C@@H]1CC[C@@H]2N(CCO)CCO [17beta-[Bis(2-hydroxyethyl)amino]androst-5-en-3beta-ol]
CC50 at 24 h [1, 3]: 88.5 µM | EC50 [2, 4]: 7.5 µM

CC[C@@]1(O)C[C@H](O[C@H]2C[C@H](N(C)C)[C@H](O)[C@H](C)O2)c2c(cc3c(c2O)C(=O)c2c(O)cccc2C3=O)[C@H]1C(=O)OC [Aklavine Hydrochloride]
CC50 [1, 5]: 14 µM | EC50 [2, 6]: 0.7 µM

COc1ccc2cc1Oc1ccc(cc1)C[C@H]1c3c(cc4c(c3Oc3cc5c(cc3OC)CCN(C)[C@@H]5C2)OCO4)CCN1C [Cepharanthine]
CC50 at 24 h [1]: 86.3 µM | EC50 [2, 4]: 11.4 µM

CCCCCCCCCCCCCCCC[N+](C)(C)C [Cetrimonium Bromide]
CC50 [1, 5]: 42.9 µM | EC50 [2, 6]: 6.1 µM

[H]/N=C(\N/C(=N/[H])NCCCCCCNC(=N)NC(=N)Nc1ccc(Cl)cc1)Nc1ccc(Cl)cc1 [Chlorhexidine]
CC50 at 24 h [1, 3]: 60.5 µM | EC50 [2, 6]: 10.3 µM

Cc1cc(O)ccc1Cl [Chlorocresol]
CC50 at 24 h [1, 3]: 138 µM | EC50 [2, 7]: 8.02 µM | EC50 [2, 6]: 8 µM

CN(C)CCCN1c2ccccc2Sc2ccc(Cl)cc21 [Chlorpromazine]
CC50 at 24 h [1]: 96.1 µM | EC50 [2, 7]: 15.1 µM

Oc1c(I)cc(Cl)c2cccnc12 [Clioquinol]
CC50 at 24 h [1, 3]: 60 µM | EC50 [2, 6]: 11.3 µM

Oc1ccc(Cl)c2cccnc12 [Cloxyquin]
CC50 at 24 h [1, 3]: 94.8 µM

C=C1C(=O)O[C@H]2C[C@@H]1C(OC(C)=O)C/C(C)=C/CC/C(C)=C/CC[C@@]2(C)O (stereo partly drawn) [Crassin Acetate]
CC50 at 24 h [1, 3]: 41.1 µM | EC50 [2, 4]: 7.7 µM

C=C1C(=O)O[C@H]2C[C@@H]1[C@@H](OC(C)=O)C/C(C)=C/CC/C(C)=C\CC[C@@]2(C)O [Crassin]
CC50 at 24 h [1, 3]: 51.6 µM | EC50 [2, 4]: 8.9 µM

C[C@@H]1CC[C@@]2(OC1)O[C@H]1[C@@H](O)[C@H]3[C@@H]4CC[C@H]5C[C@@H](O[C@@H]6O[C@H](CO)[C@H](O[C@@H]7O[C@H](CO)[C@@H](O)[C@H](O[C@@H]8OC[C@@H](O)[C@H](O)[C@H]8O)[C@H]7O[C@@H]7O[C@H](CO)[C@H](O)[C@H](O[C@@H]8O[C@H](CO)[C@@H](O)[C@H](O)[C@H]8O)[C@H]7O)[C@H](O)[C@H]6O)[C@H](O)C[C@]5(C)[C@H]4CC[C@]3(C)[C@H]1[C@@H]2C [Digitonin]
CC50 [1, 5]: 42.4 µM | EC50 [2, 4]: 8.2 µM

Cc1c2ccncc2c(C)c2c1[nH]c1ccccc12 [Ellipticine]
CC50 [1]: 30.7 µM | EC50 [2, 4]: 2.4 µM

Cc1nccc2c1[nH]c1cc(O)ccc12 [Harmol Hydrochloride]
CC50 [1, 5]: 60.2 µM | EC50 [2, 6]: 11.2 µM

Oc1c(Cl)cc(Cl)c(Cl)c1Cc1c(O)c(Cl)cc(Cl)c1Cl [Hexachlorophene]
EC50 ([2]; Leishmania donovani, 48 h, read-out: Ex vivo model EC50 Mean): 13.6 µM

CC[n+]1c(-c2ccccc2)c2cc(N)ccc2c2ccc(N)cc21 [Homidium Bromide]
CC50 [1, 5]: 58.8 µM | EC50 [2, 7]: 11.9 µM | EC50 [2, 6]: 11.9 µM

CNCCCC12CCC(c3ccccc31)c1ccccc12 [Maprotiline Hydrochloride]
CC50 at 24 h [1]: 57.9 µM

Clc1ccc2c(NCCNC3CCCCC3)ccnc2c1 [N1-(7-chloro-4-quinolinyl)-N2-cyclohexyl-1,2-ethanediamine]
CC50 at 24 h [1, 3]: 46.2 µM | EC50 [2, 4]: 3.9 µM

CC(C)=CCNc1ncnc2nc[nH]c12 [N6-Isopentenyladenine]
CC50 [1]: 225 µM | EC50 [2, 6]: 20 µM

CN[C@H]1CC[C@@H](c2ccc(Cl)c(Cl)c2)c2ccccc21 [Sertraline Hydrochloride]
CC50 at 24 h [1]: 82.5 µM

C[C@@H]1[C@H](O)[C@@H](C)/C=C/C=C/C=C/C=C/C=C/C=C/C=C/[C@H](O[C@@H]2O[C@H](C)[C@@H](O)[C@H](N)[C@@H]2O)C[C@@H]2O[C@](O)(C[C@@H](O)C[C@@H](O)[C@H](O)CC[C@@H](O)C[C@@H](O)CC(=O)O[C@H]1C)C[C@H](O)[C@H]2C(=O)O [amphotericin B deoxycholate]
EC50 ([2]; Leishmania donovani, ex vivo model, freshly solubilized compound from commercial source, read-out: EC50): 0.24 ± 0.02 µM

Monensin Sodium
EC50 [2, 8]: 2.44 µM | EC50 ([2]; ex vivo splenic explant, 48 h, luminometry, at least two experiments, compound from screened library, read-out: Ex vivo model EC50 Mean): 2.4 µM

Neomycin sulfate
EC50 [2, 8]: 6.72 µM | Activity in the ex vivo system (screen or EC50 determination) ([2]; transgenic L. donovani, ex vivo system): identified as a compound with activity
